Results as given in patent US10752900B2, “Oligonucleotides for modulating gene expression and uses thereof” (BIOGENERA S.P.A., priority 2012, dated 2020).
In the oligonucleotide strings, read from the 5' end, every base follows the letter of its sugar. An asterisk marks phosphorothioate; unmarked linkages are phosphodiester. Other units and linkages are bracketed, terminal groups are in braces. A string of capitals states the bases alone. d = 2'-deoxy (DNA)

What was measured:
MYCN gene = assay: QT-PCR, MYCN mRNA in RH30 cells; format: cell-based, human
Description: For the purpose of assessing the ability of the oligonucleotides of the present invention to modulate the expression of the target genes, their ability to reduce the quantity of messenger RNA was analyzed using the Real-Time PCR technique. For this purpose, use was made of 24-well plates, which were seeded with 5.0×10^4 cells with 0.3 ml of OPTI-MEM (GIBCO BRL) medium, 4% FBS and 2 mM L-glutammine (experiments in triplicate) per well. The cells were incubated for 24 hours at 37° C., in an atmosphere containing 5% CO2 to permit adherence to the base of the wells. Each oligonucleotide analyzed, except for the PNA oligonucleotides, was incubated beforehand with 2 μl of Lipofectamine 2000 (Invitrogen), with 0.3 mL of serum-free OPTI-MEM (GIBCO BRL) medium. For each well, the oligonucleotides were analyzed at the following final concentrations: • the antisense oligonucleotides siRNA and siRNA gapmer (i.e. the oligonucleotides containing one or more monomers of chemically modified nucleic acids at the 3' or 5' end, while in the central portion they have monomers of nucleic acids that have not been modified or have been modified at the level of the phosphodiester bond as a phosphorothioate bond) were used at 200 nM; • the antisense oligonucleotides containing phosphorothioate DNA monomers, the RNA antigene oligonucleotides (agRNA) and the oligonucleotides containing DNA monomers and LNA monomers were used at 10 μM; • the morpholino oligonucleotides were used at a concentration of 1 μM, and • the PNA oligonucleotides were administered at a concentration of 1 μM. The cells were treated with the oligonucleotides, adding FBS up to 4% 6 hours after administration of the same. After 24 hours the total RNA was extracted from each well and purified using the RNeasy Mini Kit (QIAGEN). Assays were performed on 8 cell lines obtained from 5 different human tumours which are correlated with MYCN expression, i.e.: • as a neuroblastoma model use was made of the cell lines Kelly, IMR-32 (where the MYCN gene is amplified and superexpressed) and SKNBE2c and LAN1 (where the MYCN gene is amplified and superexpressed and the p53 gene is mutated); • as a rabdomiosarcoma model use was made of the cell line RH30, where the MYCN gene is amplified and superexpressed; • as a Wilms' tumour model use was made of the cell line WiT49, where the MYCN gene is amplified and superexpressed; • as a retinoblastoma model use was made of the cell line Y79, where the MYCN gene is amplified and superexpressed; and • as a model of small cell lung cancer use was made of the cell line H69 where the MYCN gene is amplified and superexpressed. As a control, use was made of the same cell lines as listed above treated with sterile water instead of oligonucleotides. Each RNA sample was quantified (in duplicate) using a NanoDrop ND-1000 spectrophotometer (NanoDrop Technologies). The first strand of cDNA was produced using the cDNA Synthesis Kit for RT-PCR (Roche). For the cDNA synthesis reaction a total of 1 μg of RNA was used. For the real-time PCR, 10 ng of cDNA in a final volume of 20 μl was used with SYBR Green Master Mix 2× (Applied Biosystems) (3 identical experiments were conducted in triplicate). Two housekeeping genes were used as positive controls: GAPDH and beta-actin (ACTB). The conditions of the QT-PCR reaction were: 10 min at 95° C., 20 sec at 95° C., and 30 sec at 60° C., for 50 cycles. The PNAs having SEQ ID NO: 1-12 were also tested on different cell lines which overexpress MYCN (Kelly, SKNBE2c, RH30, […] 1 and H69). The results are shown in Table 6 and confirm the selectivity and specificity of the inhibition effect of the PNAs on the product of protein translation of the MYCN gene. Chimeric oligonucleotides comprising DNA monomers and LNA monomers and having the MYCN gene as their target were tested in vitro on alveolar rabdomyosarcoma cells (RH30). […]

[1] = tested on: rabdomyosarcoma cells (RH30); assay: Cellular proliferation assay (ATP-Lite), RH30 cells; format: cell-based, human
Description: For the purpose of assessing the gene modulation ability of the oligonucleotides of the present invention, the effect of their administration on cell viability was determined. For this purpose 5×10^3 cells per well were seeded into 96-well cell culture plates (experiments conducted in triplicate) with 100 μl of OPTI-MEM (GIBCO BRL) medium containing 4% FBS and 2 mM of L-glutammine. The PNA oligonucleotides were administered at different concentrations (1 μM-2.5 μM-5 μM-10 μM) in order to observe a dose-effect relationship. As regards all the other oligonucleotides, the concentrations at which they administered are listed in the paragraph: The viability of the treated cells was determined at 48, 72, 96 and 168 hours after treatment. Cell viability was assessed by means of an ATP-Lite assay (Luminescence ATP Detection Assay System, PerkinElmer) and is reported as the ratio between the average signal of the treated wells compared to the average value of the wells of untreated control cells. The cells were processed following the instructions provided with the kit. The assays were performed on the same cell lines used to determine the levels of the MYCN gene messenger and listed in the paragraph: Treatments with Oligonucleotides-QT-PCR. The PNAs having SEQ ID NO: 1-12 were also tested on different cell lines which overexpress MYCN (Kelly, SKNBE2c, RH30, […] 1 and H69). The results are shown in Table 6 and confirm the selectivity and specificity of the inhibition effect of the PNAs on the product of protein translation of the MYCN gene. Chimeric oligonucleotides comprising DNA monomers and LNA monomers and having the MYCN gene as their target were tested in vitro on alveolar rabdomyosarcoma cells (RH30). […] The antisense oligonucleotides designed and synthesized by the Applicant according to the parameters described in the present invention were analyzed in vitro on rabdomyosarcoma cells (RH30).

[2] = Table 9, siRNA and siRNA gapmer used at 200 nM with Lipofectamine 2000
[3] = Table 9, siRNA and siRNA gapmer used at 200 nM
[4] = Table 9, phosphorothioate DNA antisense used at 10 μM with Lipofectamine 2000
[5] = Table 9, phosphorothioate DNA antisense used at 10 μM

Substance | mRNA inhibition (%) (MYCN gene; [2]) | Cell Prolif. (%) [1, 3] [%] | mRNA inhibition (%) (MYCN gene; [4]) | Cell Prolif. (%) [1, 5] [%]
SEQ ID NO: 27: double-stranded siRNA against MYCN, sense GAUGAUGAAGAGGAAGAUG, antisense SEQ ID NO: 58 (antisense CAUCUUCCUCUUCAUCAUC; listed as RNA, chemistry not given here) | 70 | 43 | – | –
SEQ ID NO: 28: double-stranded siRNA against MYCN, sense UGAUGAAGAGGAAGAUGAA, antisense SEQ ID NO: 59 (antisense UUCAUCUUCCUCUUCAUCA; listed as RNA, chemistry not given here) | 78 | 35 | – | –
SEQ ID NO: 29: double-stranded siRNA against MYCN, sense GAGGAAGAUGAAGAGGAAG, antisense SEQ ID NO: 60 (antisense CUUCCUCUUCAUCUUCCUC; listed as RNA, chemistry not given here) | 85 | 28 | – | –
SEQ ID NO: 30: double-stranded siRNA against MYCN, sense GGAAGAUGAAGAGGAAGAA, antisense SEQ ID NO: 61 (antisense UUCUUCCUCUUCAUCUUCC; listed as RNA, chemistry not given here) | 81 | 30 | – | –
SEQ ID NO: 31: phosphorothioate DNA antisense oligonucleotide CGTGGAGCAGCTCGGCAT against MYCN (antisense dC*dG*dT*dG*dG*dA*dG*dC*dA*dG*dC*dT*dC*dG*dG*dC*dA*dT) | – | – | 34 | 73
SEQ ID NO: 32: phosphorothioate DNA antisense oligonucleotide CAGGGTGTCCTCTCCGGA against MYCN (antisense dC*dA*dG*dG*dG*dT*dG*dT*dC*dC*dT*dC*dT*dC*dC*dG*dG*dA) | – | – | 45 | 65
SEQ ID NO: 33: double-stranded chimeric RNA / 2′O-Methyl siRNA against MYCN, sense GAGGAAGAUGAAGAGGAAGTT, antisense SEQ ID NO: 62 (antisense CUUCCUCUUCAUCUUCCUCTT; RNA with some 2'-O-methyl monomers, positions not given here) | 13 | 85 | – | –
SEQ ID NO: 34: double-stranded chimeric RNA / 2′-Fluoro siRNA against MYCN, sense CAGGAAGAUGAAGAGGAAGUU, antisense SEQ ID NO: 63 (antisense GUUCCUCUUCAUCUUCCUCUU; RNA with some 2'-fluoro monomers, positions not given here) | 59 | 52 | – | –
SEQ ID NO: 35: double-stranded chimeric RNA / LNA siRNA against MYCN, sense GAGGAAGAUGAAGAGGAAGTT, antisense SEQ ID NO: 64 (antisense CUUCCUCUUCAUCUUCCUCTT; RNA with some LNA monomers, positions not given here) | 34 | 68 | – | –
SEQ ID NO: 36: double-stranded chimeric RNA / arabinoside RNA siRNA against MYCN, sense CAGGAAGAUGAAGAGGAAGAA, antisense SEQ ID NO: 65 (antisense GUUCCUCUUCAUCUUCCUCAA; arabinoside modifications, further chemistry not given here) | 69 | 35 | – | –
